Assay results taken from US11311013B2, “Benzimidazole compound or salt thereof, agricultural and horticultural insecticidal and acaricidal agent containing said compound, and method for using same” (NIHON NOHYAKU CO., LTD., priority 2018, dated 2022).

System: Diamondback moth (Plutella xylostella)
Test: Insecticidal test on diamondback moth, dip of Chinese cabbage seedlings with laid eggs
Assay type: in vivo
Settings: 144 h, dip about 30 seconds, 25° C., 6 days after dip treatment, hatched larvae counted, read-out: insecticidal efficacy (corrected mortality rate) activity level
Text: Insecticidal Test on Diamondback Moth (Plutella xylostella)
Adults of diamondback moth were released onto Chinese cabbage seedlings and allowed to lay eggs thereon. At 2 days after the release of the adults, the Chinese cabbage seedlings with laid eggs were dipped for about 30 seconds in agrochemical dispersions diluted to 500 ppm, each of which contained a different benzimidazole compound represented by the general formula (1) of the present invention or salt thereof as an active ingredient. After air-dried, the seedlings were kept in a thermostatic chamber at 25° C. At 6 days after the dip treatment, the number of hatched larvae per plot was counted, the corrected mortality rate was calculated according to the formula shown below, and the insecticidal efficacy was evaluated according to the criteria of Test Example 2. This test was conducted in triplicate using 10 adults of diamondback moth per plot. Corrected mortality rate (%)=(Number of hatched larvae in a non-treatment plot−Number of hatched larvae in a treatment plot)/(Number of hatched larvae in a non-treatment plot)×100 [Expression 3]

Structure (SMILES)	mortality at 500 ppm [%]
CCS(=O)(=O)n1c(-c2ccc(OCC(F)(F)C(F)(F)F)nc2)nc2ccccc21 [Compound 1-2, 2-(2-(2,2,3,3,3-pentafluoropropyloxy)pyridin-5-yl)-1-ethanesulfonyl benzimidazole]	100

System: Two-spotted spider mite (Tetranychus urticae)
Test: Acaricidal action on two-spotted spider mite, kidney bean leaf disk spray
Assay type: in vivo
Settings: 500 ppm, 25° C., two days after treatment
Procedure: Acaricidal Action on Two-Spotted Spider Mite (Tetranychus urticae)
Leaf disk having a diameter of 2 cm was prepared by leaves of kidney bean, and the leaf disk was placed on the wetted filter paper. Adult hens of two-spotted spider mite were inoculated on the wetted filter paper, and then 50 ml of an agrochemical dispersion, prepared by diluting a formulation containing the benzimidazole compound represented by the general formula (1) of the present invention or salt thereof as an active ingredient to adjust each of the concentrations to 500 ppm, was sprayed on turntable uniformly. After the spraying, it was allowed to stand in a thermostatic chamber at 25° C. Two days after the treatment of an agrochemical dispersion, the dead mites were counted, the corrected mortality rate was calculated according to the formula shown below, and the acaricidal efficacy was evaluated according to the criteria of Test Example 2. This test was conducted in duplicate using 10 adult hens of two-spotted spider per plot. Corrected mortality (%)=(Number of dead mites in a non-treatment plot−Number of dead mites in a treatment plot)/(Number of dead mites in a non-treatment plot)×100 [Expression 4]

Structure (SMILES)	acaricidal efficacy (corrected mortality rate) activity level
CCS(=O)(=O)n1c(-c2ccc(OCC(F)(F)F)nc2)nc2ccccc21 [Compound 1-1]	D or higher
CCS(=O)(=O)n1c(-c2ccc(OCC(F)(F)C(F)(F)F)nc2)nc2ccccc21 [Compound 1-2, 2-(2-(2,2,3,3,3-pentafluoropropyloxy)pyridin-5-yl)-1-ethanesulfonyl benzimidazole]	D or higher
CS(=O)(=O)n1c(-c2ccc(OCC(F)(F)C(F)(F)F)nc2)nc2ccccc21 [Compound 1-3]	D or higher
CCCS(=O)(=O)n1c(-c2ccc(OCC(F)(F)C(F)(F)F)nc2)nc2ccccc21 [Compound 1-4]	D or higher
CCCCS(=O)(=O)n1c(-c2ccc(OCC(F)(F)C(F)(F)F)nc2)nc2ccccc21 [Compound 1-5]	D or higher
CCS(=O)(=O)n1c(-c2ccc(OCC(F)(F)C(F)(F)F)nc2)nc2ccc(Br)cc21 [Compound 1-10]	D or higher
CCS(=O)(=O)n1c(-c2ccc(OCC(F)(F)C(F)(F)F)nc2)nc2cc(Cl)ccc21 [Compound 1-12]	D or higher
CCS(=O)(=O)n1c(-c2ccc(OCC(F)(F)C(F)(F)F)nc2)nc2ccc(Cl)cc21 [Compound 1-13]	D or higher
CCS(=O)(=O)n1c(-c2ccc(OCC(F)(F)C(F)(F)F)nc2)nc2cc(Cl)c(Cl)cc21 [Compound 1-14]	D or higher
CCS(=O)(=O)n1c(-c2ccc(OCC(F)(F)C(F)(F)F)nc2)nc2cc(Br)c(Br)cc21 [Compound 1-15]	D or higher
CCS(=O)(=O)n1c(-c2ccc(OCC(F)(F)C(F)(F)F)nc2)nc2cc(C)c(C)cc21 [Compound 1-17]	D or higher
CCS(=O)(=O)n1c(-c2cnc(OCC(F)(F)C(F)(F)F)c(Cl)c2)nc2ccccc21 [Compound 1-18]	D or higher
CCS(=O)(=O)n1c(-c2ccc(OCC(F)(F)C(F)F)nc2)nc2ccccc21 [Compound 1-19]	D or higher
CCS(=O)(=O)n1c(-c2ccc(OCC(F)(F)C(F)(F)C(F)(F)F)nc2)nc2ccccc21 [Compound 1-20]	D or higher
CCS(=O)(=O)n1c(-c2ccc(OCC(F)(F)C(F)(F)C(F)(F)F)nc2)nc2ccc(Br)cc21 [Compound 1-22]	D or higher
CCS(=O)(=O)n1c(-c2ccc(OC(C(F)(F)F)C(F)(F)F)nc2)nc2ccccc21 [Compound 1-23]	D or higher
CCS(=O)(=O)n1c(-c2ccc(OCC(F)(F)C(F)C(F)(F)F)nc2)nc2ccccc21 (centres unmarked) [Compound 1-24]	D or higher
CCS(=O)(=O)n1c(-c2ccc(Oc3ccc(SC(F)(F)F)cc3)nc2)nc2ccccc21 [Compound 1-40]	D or higher
CCS(=O)(=O)n1c(-c2ccc(Oc3ccc([S+]([O-])C(F)(F)F)cc3)nc2)nc2ccccc21 (centres unmarked) [Compound 1-41]	D or higher
CCS(=O)(=O)n1c(-c2ccc(Oc3ccc(S(=O)(=O)C(F)(F)F)cc3)nc2)nc2ccccc21 [Compound 1-42]	D or higher
CCS(=O)(=O)n1c(-c2ccc(OCc3ccc(SC(F)(F)F)cc3)nc2)nc2ccccc21 [Compound 1-43]	D or higher
CCS(=O)(=O)n1c(-c2ccc(OCc3ccc([S+]([O-])C(F)(F)F)cc3)nc2)nc2ccccc21 (centres unmarked) [Compound 1-44]	D or higher
O=S(=O)(CCl)n1c(-c2ccc(OCC(F)(F)C(F)(F)F)nc2)nc2ccccc21 [Compound 1-45]	D or higher
CCS(=O)(=O)n1c(-c2ccc(Oc3ccc(OC(F)(F)F)cc3)nc2)nc2ccccc21 [Compound 1-46]	D or higher
CCCCOc1ccc(-c2nc3ccccc3n2S(=O)(=O)CC)cn1 [Compound 1-47]	D or higher

Structure (SMILES)	acaricidal efficacy (corrected mortality rate) activity level
CCCCCOc1ccc(-c2nc3ccccc3n2S(=O)(=O)CC)cn1 [Compound 1-48]	D or higher
CCCCCCOc1ccc(-c2nc3ccccc3n2S(=O)(=O)CC)cn1 [Compound 1-49]	D or higher
CCS(=O)(=O)n1c(-c2ccc(OC3CCCC3)nc2)nc2ccccc21 [Compound 1-50]	D or higher
CCS(=O)(=O)n1c(-c2ccc(OC3CCCCCC3)nc2)nc2ccccc21 [Compound 1-51]	D or higher
CCS(=O)(=O)n1c(-c2cncc(OCC(F)(F)C(F)(F)F)c2)nc2ccccc21 [Compound 3-1]	D or higher
CCCOc1ccc(-c2nc3ccccc3n2S(=O)(=O)CC)cn1 [Compound 5-1]	D or higher
CCS(=O)(=O)n1c(-c2ccc(OC(C)C)nc2)nc2ccccc21 [Compound 5-2]	D or higher
CCS(=O)(=O)n1c(-c2ccc(OC3CCCCC3)nc2)nc2ccccc21 [Compound 5-3]	D or higher
CCS(=O)(=O)n1c(-c2ccc(OCCC(C)(C)C)nc2)nc2ccccc21 [Compound 5-4]	D or higher
CCS(=O)(=O)n1c(-c2ccc(OCCOC)nc2)nc2ccccc21 [Compound 5-5]	D or higher
CCS(=O)(=O)n1c(-c2ccc(OCCSC)nc2)nc2ccccc21 [Compound 5-6]	D or higher
CCS(=O)(=O)n1c(-c2ccc(Oc3ccc([Si](C)(C)C)cc3)nc2)nc2ccccc21 [Compound 5-8]	D or higher
CCS(=O)(=O)n1c(-c2cnc(OCC(F)(F)F)c(Cl)c2)nc2ccccc21 [Compound 5-9]	D or higher
CCS(=O)(=O)n1c(-c2cnc(OCC(F)(F)C(F)F)c(Cl)c2)nc2ccccc21 [Compound 5-10]	D or higher
CCS(=O)(=O)n1c(-c2ccc(OCCC(F)(F)C(F)(F)C(F)(F)C(F)(F)C(F)(F)C(F)(F)F)nc2)nc2ccccc21 [Compound 5-11]	D or higher
CCS(=O)(=O)n1c(-c2ccc(OCC(F)(F)C(F)(F)C(F)(F)C(F)(F)C(F)(F)C(F)F)nc2)nc2ccccc21 [Compound 5-12]	D or higher
CCCSc1ccc(-c2nc3ccccc3n2S(=O)(=O)CC)cn1 [Compound 5-14]	D or higher
CCCCSc1ccc(-c2nc3ccccc3n2S(=O)(=O)CC)cn1 [Compound 5-17]	D or higher
CCS(=O)(=O)n1c(-c2ccc(SC3CCCC3)nc2)nc2ccccc21 [Compound 5-18]	D or higher
CCS(=O)(=O)n1c(-c2ccc(SC3CCCCC3)nc2)nc2ccccc21 [Compound 5-19]	D or higher
CCS(=O)(=O)n1c(-c2ccc(SCC3CC3)nc2)nc2ccccc21 [Compound 5-20]	D or higher
CCS(=O)(=O)n1c(-c2ccc(SCc3ccccc3)nc2)nc2ccccc21 [Compound 5-21]	D or higher
CCCCN(CCCC)c1ccc(-c2nc3ccccc3n2S(=O)(=O)CC)cn1 [Compound 5-24]	D or higher
CCCCN(C)c1ccc(-c2nc3ccccc3n2S(=O)(=O)CC)cn1 [Compound 5-25]	D or higher
